From ChEMBL document CHEMBL5380851, “"Magic Chloro": Profound Effects of the Chlorine Atom in Drug Discovery” (J Med Chem, 2023)

experiment: Dissociation constant, pKa of the compound

pKa	SMILES
3.83	Clc1ccncc1
2.81	Clc1cccnc1

SMILES	pKa
Clc1ccccn1 [2-CHLOROPYRIDINE]	0.49
